Experimental data reported in patent US20230286973A1, “PROTEIN SECRETION INHIBITORS” (KEZAR LIFE SCIENCES, priority 2020, published 2023).

Columns and labels:
[1] = tested on: PD1-ss+10aa/Gaussia Luciferase; assay: Dox-Induced PD1-ss-Gluc Assay; assay type: cell-based; conditions: 24 hr Dox induction; 293FRT/TO cells; mean; read-out: 24 hr Dox Inducible PD1ssGluc 293FRT/TO: Mean IC50
In short: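 Flp-In 293 T-REx cells stably carrying a doxycycline-inducible Gaussia luciferase fused to the PD1 signal sequence plus 10 aa were plated the day before. Compound dilutions in DMSO/media containing doxycycline were then added and incubated at 37 °C, 5% CO2. Data for undefined stereochemistry refer to stereoisomer mixtures.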

[2] = tested on: multiple myeloma cell line NCI-H929; assay: H929 Cell Viability Assay; assay type: cell-based, human; conditions: Homo sapiens, NCI-H929, 48 h, NCI-H929 cells, Celltiter-Glo
In short: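 Cells in RPMI 1640/10% FBS; compound dilutions in DMSO/media; 48 h, 37° C, 5% CO2; CellTiter-Glo luciferase readout for viability.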

[3] = Liver Microsome Stability Assay (mouse); conditions: mouse liver microsomes, with NADPH, 1.0 uM compound
Procedure: (§1) Stability of a compound was assessed in the presence of liver microsomes from various sources—mouse, rat, monkey and human liver microsomes. 1.0 uM compound, 0.4% DMSO in 0.1 M Potassium Phosphate with 1.0 mg/mL liver microsomes, were incubated at 37° C. with or without 1 mM NADPH. The samples were quenched at 0, and 30 minutes.

[4] = tested on: IL-2-FL/Gaussia Luciferase; assay: Dox Induced IL2-FL-Gluc Assay; assay type: cell-based; conditions: for IC50: 24 hr Dox induction, 293FRT/TO cells, mean, read-out: 24 hr Dox Inducible IL2FLGluc 293FRT/TO: Mean IC50; for 24 hr Dox Inducible IL2FLGluc 293FRT/TO: IL2/PD1: ratio of IL2FLGluc IC50 to PD1ssGluc IC50, '<=>' given where both are I.A.
In short: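 Stable Flp-In 293 T-REx line, Tet-regulated IL-2 (aa 1-153)–Gaussia luciferase fusion; hygromycin/blasticidin selected. Plated day -1; compound + doxycycline added next day; 37° C, 5% CO2.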

[5] = tested on: TNFα-FL/Gaussia Luciferase; assay: Dox Induced TNFα-FL-Gluc Assay; assay type: cell-based; conditions: for IC50: 24 hr Dox induction, 293FRT/TO cells, mean, read-out: 24 hr Dox Inducible TNFaFLGluc 293FRT/TO: Mean IC50; for 24 hr Dox Inducible TNFaFLGluc 293FRT/TO: TNF/PD1: ratio of TNFaFLGluc IC50 to PD1ssGluc IC50, '<=>' given where both are I.A.
In short: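 Cell line: stable Flp-In 293 T-REx, TNFα-FL(1-233)-Gaussia luciferase fusion, T-REx-inducible. Plated day -1; compounds in DMSO/media + doxycycline, 37 °C, 5% CO2. Undefined stereocentres = mixture tested.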

[6] = tested on: multiple myeloma cell line U266B1; assay: U266 Cell Viability Assay; assay type: cell-based, human; conditions: Homo sapiens, U-266, 48 h, U266B1 cells, Celltiter-Glo
In short: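 Luminescent ATP read-out (CellTiter-Glo) after 48 h compound exposure at 37° C., 5% CO2; cells maintained in RPMI 1640/10% FBS/2 mM glutamine/pen-strep, compounds diluted in DMSO/media.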

[7] = Liver Microsome Stability Assay (rat); conditions: rat liver microsomes, with NADPH, 1.0 uM compound
Procedure: as §1

[8] = Liver Microsome Stability Assay (human); conditions: human liver microsomes, with NADPH, 1.0 uM compound
Procedure: as §1

[9] = Liver Microsome Stability Assay (monkey); conditions: monkey liver microsomes, with NADPH, 1.0 uM compound
Procedure: as §1

[10] = tested on: HER3-ss+4aa/Gaussia Luciferase; assay: Dox-Induced Her3-ss-Gluc Assay; assay type: cell-based; conditions: 24 hr Dox induction; 293FRT/TO cells; mean; read-out: 24 hr Dox Inducible Her3(ss + 4)Gluc 293FRT/TO: Mean IC50
In short: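 Flp-In 293 T-REx cells, stable HER3-ss+4aa/Gaussia luciferase insert, hygromycin/blasticidin selected; plated day before; compound in DMSO/media + doxycycline; 37° C., 5% CO2.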

Structure (SMILES)	IC50 [1] [µM]	EC50 [2] [µM]	Liver Microsome Stability (Multiple Species): Mouse - % Remaining after 30 min w/NADPH [3] [%]	IC50 [4] [µM]	24 hr Dox Inducible IL2FLGluc 293FRT/TO: IL2/PD1 [4]	IC50 [5] [µM]	EC50 [6] [µM]	Liver Microsome Stability (Multiple Species): Rat - % Remaining after 30 min w/NADPH [7] [%]	Liver Microsome Stability (Multiple Species): Human - % Remaining after 30 min w/NADPH [8] [%]	Liver Microsome Stability (Multiple Species): Monkey - % Remaining after 30 min w/NADPH [9] [%]	IC50 [10] [µM]	24 hr Dox Inducible TNFaFLGluc 293FRT/TO: TNF/PD1 [5]
CC(=O)N(C)C/C=C/c1csc(NC(=O)c2cccn2Cc2ccncc2)n1 [Compound E15, (E)-N-(4-(3-(N-methylacetamido)prop-1-en-1-yl)thiazol-2-yl)-1-(pyridin-4-ylmethyl)-1H-pyrrole-2-carboxamide]	> 25	> 25	0.54	> 25	1	> 25	> 25	0.53	0.91	0.11	> 25	–
O=C(Nc1nc(/C=C/[C@H]2CCCCN2)cs1)c1cccn1Cc1ccncc1 [Compound E16, (R,E)-N-(4-(2-(piperidin-2-yl)vinyl)thiazol-2-yl)-1-(pyridin-4-ylmethyl)-1H-pyrrole-2-carboxamide]	> 25	> 25	37	> 25	1	> 25	> 25	51.2	1.56	0.72	> 25	–
O=C(Nc1nc([C@H]2CCCN2)cs1)c1cccn1Cc1ccncc1 [Compound E17, (R)-1-(pyridin-4-ylmethyl)-N-(4-(pyrrolidin-2-yl)thiazol-2-yl)-1H-pyrrole-2-carboxamide]	> 25	> 25	35.8	> 25	1	> 25	> 25	27.8	35.6	18.1	> 25	–
O=C(Nc1nc(/C=C/[C@@H]2CCCCN2)cs1)c1cccn1Cc1ccncc1 [Compound E18, (S,E)-N-(4-(2-(piperidin-2-yl)vinyl)thiazol-2-yl)-1-(pyridin-4-ylmethyl)-1H-pyrrole-2-carboxamide]	> 5	> 25	33.5	> 5	1	> 5	> 25	19.4	0.2	0.27	> 5	–
O=C(Nc1nc([C@H]2CCCN2c2ccccc2)cs1)c1cccn1CCc1cccnc1 [Compound E21, (R)-N-(4-(1-phenylpyrrolidin-2-yl)thiazol-2-yl)-1-(2-(pyridin-3-yl)ethyl)-1H-pyrrole-2-carboxamide]	6.48	15.6	0.02	> 25	>3.9	> 25	23.7	0.1	0.8	0.23	> 25	>3.86
O=C(Nc1nc([C@H]2CCCN2c2ccccc2)cs1)c1cccn1Cc1ccncc1Br [Compound E22, (R)-1-((3-bromopyridin-4-yl)methyl)-N-(4-(1-phenylpyrrolidin-2-yl)thiazol-2-yl)-1H-pyrrole-2-carboxamide]	0.13	11.9	1.4	0.399	3.1	3.42	> 25	0.79	11.5	0.58	0.216	26.4
O=C(Nc1nc([C@H]2CCCN2c2ccccc2)cs1)c1cccn1Cc1ccnc(Br)c1 [Compound E23, (R)-1-((2-bromopyridin-4-yl)methyl)-N-(4-(1-phenylpyrrolidin-2-yl)thiazol-2-yl)-1H-pyrrole-2-carboxamide]	0.338	18	6.17	0.773	2.3	11.4	> 25	4.14	3	2.07	0.629	33.8
CC(=O)NC/C=C/c1csc(NC(=O)c2cccn2Cc2ccncc2)n1 [Compound E30, (E)-N-(4-(3-acetamidoprop-1-en-1-yl)thiazol-2-yl)-1-(pyridin-4-ylmethyl)-1H-pyrrole-2-carboxamide]	> 25	> 25	26.4	> 25	1	> 25	> 25	37.7	20.8	9.96	> 25	–
CN(C)CCO[C@@H]1C[C@H](c2csc(NC(=O)c3cccn3Cc3ccncc3)n2)N(c2ccccc2)C1 [Compound E31]	1.67	8.9	38.3	9.02	5.4	> 25	7.85	21.2	2.06	0.25	9.14	>15.0
